Results: EP0536208B1, “1,2-DIHYDRO-3H-DIBENZISOQUINOLINE-1,3-DIONE ANTICANCER AGENTS” (RESEARCH CORPORATION TECHNOLOGIES, INC., priority 1990, dated 1992)
Converted amounts (≈) assume the structure as drawn. Where two headings read alike, the source gives them in different places.

Experiments:
8226/DOX-40 = assay: In vitro tumor cell viability assay using MTT dye; type: cell-based, Human; settings: for IC50: Homo sapiens
Description: (§1) Compounds of the present invention were tested for their in vitro activity in tumor cells sensitive and resistant to standard anti-cancer agents. The tumor cell lines used in this protocol are 8226 human Myeloma^1; 8226/Dox-40^2, L-1210/Murine Leukemia, multidrug resistant L-210/^3, 2780 Human Ovarian Cancer and 2780/AD^4. Each of these resistant cell lines is known as a multidrug resistant or "MDR" cell line. These cell lines produce a 170,00 molecular weight membrane protein termed the P-glycoprotein which acts as an active drug efflux pump. Thus, once a cell produces the P-glycoprotein, it has the capability of pumping out of the cell a large variety of unrelated natural products. […] The protocol for measuring the effectiveness of compounds of the present invention is as follows: 2) In Vitro Tumor Cell Viability Assays Using MTT-Dye: Tumors are processed into a single cell suspension as described above. The cells are plated at a concentration of 3-5 X 10^4/1 mL well into plastic 96-well plates. […] Afterwards the medium containing the drug is removed, the cells are "washed" by centrifugation in fresh medium or phosphate-buffered saline (pH 7.4). A tetrazolium dye is then added (3,4,5-dimethylthiazol-2-yl)-2,5-diphenyl tetrazolium bromide (MTT). This dye forms a colored formazan product upon activation by mitochondrial reductases in viable cells. Typically, the formazan product is solubilized in acid-propanol or DMSO. The intensity of the color is proportional to viable cell numbers and this is quantitated by spectrophotometric absorbance ([…]) on a micro ELISA plate reader. Test results are calibrated in % control absorbance from untreated tumor cells (Mossman T: J Immunol Meth 65:55-63, 1983). Using the above procedure, Compound 1 was tested for its cytotoxic activity with respect to various tumor cell lines.

2780/AD = assay: In vitro tumor cell viability assay using MTT dye; type: cell-based, Human
Description: as §1

[1] = system: P-388 lymphocytic leukemia; assay: Survival study in tumor-bearing mice, P-388 leukemia model; type: in vivo; settings: 10^6 cells in DBA mice; 16 mg/kg; d1,5,9; intraperitoneally
Excerpt: Thus, in the lower level resistant cell lines, such as the ten-fold mitomycin C resistant L1210 and the tenfold adriamycin resistant 2780 ovarian cancer, Compound 1 maintained its complete activity as shown in Table II. The anti-tumor activity of compounds of the present invention in in vivo mouse murine models were studied. 3) Survival Studies In Tumor-Bearing Mice: 3.1 P-388 Leukemia Modles: One million P-388 leukemia cells originally obtained from American Type Culture Collection (Rockville, MD) are implanted into the peritoneum of adult DBA-2J male mice (Jackson Laboratories, Bar Harbor, ME). Twenty four hours later, drugs diluted in physiological saline are injected intraperitoneally at a volume of 0.1 mL/10 g body weight. The mice (10/group) are then followed for survival daily and compared to untreated tumor bearing mice. […] The perpendicular widths of the tumors are measured by caliper thrice weekly and converted to an estimated tumor mass according to the formula: ((1 X W)^2)/(2)= grams of tumor. [formula] wherein • W = width of tumor • l = length of tumor Tumor growth delay is calculated as the difference in days for tumors in treated mice to reach an estimated mass 750 mg or 1.5 g compared to that in untreated controls: Days to reach 750 mg (Treated - Control) = Days of Tumor Growth Delay [formula] […]

SW80p105 = assay: Activity against human colon tumor cells (MTT assay, 3 day drug exposure); type: cell-based; settings: cells plated 24 hr. prior to drug addition, read-out: Concentration for 50% inhibition of colony formation for human colon tumors
Description: (§2) For example, the compounds of the present invention were evaluated for cytotoxic activities in cloned human colon carcinomas. The clonogenic assays were conducted in accordance with the procedure described hereinbelow: 1) Colony Forming Assays in Soft Agar: Fresh human or murine tumors are disaggregated into single cell suspensions using mechanical, hypoosmotic and/or enzymatic (trypsin) methods. The single cells (about 5 X 10^4-10^5) are plated in 35 mm plastic petri dishes onto a 1 ml "feeder layer" of 0.3% agar dissolved in growth medium containing 5-10% vol/vol of heat-inactivated fetal bovine serum, molten 0.3% agar and the antibiotics penicillin (100 u/mL) and streptomycin (100 ug/mL). Drug exposures can be performed for one hour or continuously (drugs added to final plating medium). Tumor cell colonies > 60 uM in size are counted by automated image analysis after 10-20 days of incubation in a humidified, 5-10% CO2-gassed environment maintained at 37°C. Inhibition of colony formation is calculated based on comparisons to control (untreated) plates wherein the growth of hundreds of colonies/plate is typical. (Salmon SE, et al., N Engl J Med 298(24):1321-1327, 1978).
as §1

HT29p30 = assay: as above; type: cell-based; settings: cells plated 24 hr. prior to drug addition, read-out: Concentration for 50% inhibition of colony formation for human colon tumors
Description: as §2, §1

Resistant L1210 = assay: In vitro tumor cell viability assay using MTT dye; type: cell-based, Murine; settings: for IC50: Mus musculus
Description: as §1

[2] = system: 16-C Mammary Adenocarcinoma; assay: Tumor growth delay in mice, Mammary 16-C model; type: in vivo; settings: 16-C Mammary Adenocarcinoma (Southern Research Institute)
Description: (§3) Corbett, T.H., et al., Cancer Chemo Rep., 5 (1975). Mammary 16-C Adenocarcinoma and M5-76 Sarcoma: Chunks of tumor (20-50 mg) are subcutaneously implanted into the flank of B6C3F1 female mice. Drugs (10-45 mg/kg) are dissolved in saline and injected intraperitoneally every four days for three times starting one day after tumor implantation. Tumors are measured bidimensionally as described above and tumor growth delay is calculated at times to reach 1.5 and 3.0 g of tumor mass.

M5-76 Sarcoma = assay: Tumor growth delay in mice, M5-76 sarcoma model; type: in vivo; settings: -76 Sarcoma (Southern Research Institute)
Description: as §3

IC50 (8226/DOX-40; 96 h, 8226/DOX-40, 40-fold resistant to Doxorubicin, 4-day drug exposure, MTT dye reduction, read-out: Activity (IC50)): 0.036 µg/mL (≈ 0.113 µM) | IC50 (8226/DOX-40; 8226 Myeloma Cells Resistant, continuous exposure, MTT dye assay, read-out: IC50 VALUES): 0.03 µg/mL (≈ 0.0942 µM) | IC50 (2780/AD; Homo sapiens, 96 h, 2780/AD MDR, P-glycoprotein (+), 10-fold resistance to Doxorubicin, 4-day drug exposure, MTT dye reduction): 2.7 µg/mL (≈ 8.48 µM) | IC50 (SW80p105): 150 nM | IC50 (HT29p30): 340 nM | IC50 (Resistant L1210; 144 h, Resistant L1210, six day MTT assay, continuous drug exposure, read-out: Concentration for 50% inhibition of tumor cells): 0.0025 µg/mL (≈ 0.00785 µM) | IC50 (Resistant L1210; L1210, 96 h, L-1210/ MDR, P-glycoprotein (+), 10-fold resistance to Mitomycin C, 4-day drug exposure, MTT dye reduction, read-out: Activity (IC50)): 0.003 µg/mL (≈ 0.00942 µM) | IC50 (Resistant L1210; L1210 Leukemia Cells Resistant, continuous exposure, MTT dye assay, read-out: IC50 VALUES): 0.0025 µg/mL (≈ 0.00785 µM)
SMILES: CN(C)CCN1C(=O)c2cccc3cc4ccccc4c(c23)C1=O [Compound 1, 2-[2'-(dimethylamino)ethyl]-1,2-dihydro-3H-dibenz(deh)isoquinoline-1,3-dione]
Cross Resistance (8226/DOX-40; 8226/DOX-40 versus 8226 Human Myeloma): 3-fold | Cross Resistance (2780/AD; 2780/AD versus 2780 Human Ovarian Cancer): None | Experimental Activity, ILS (Percentage Increased Lifespan) [1]: 00:ILS* | Cross Resistance (Resistant L1210; resistant L-1210/ versus L-1210/Murine Leukemia): None | Experimental Activity, Days of Tumor Growth Delay [2]: 7 days TT | Experimental Activity, Days of Tumor Growth Delay (M5-76 Sarcoma): 7 days
